In patent US8551997B2, “Structural-based inhibitors of the glutathione binding site in aldose reductase, methods of screening therefor and methods of use” (The Board of Regents of the University of Texas System, priority 2004, dated 2013):

Assays:
[1] = system: RAW264.7 macrophages; test: LPS- and lipid aldehyde-induced signaling in RAW264.7 macrophages; type: cell-based
Experimental: At the indicated times, cells were harvested for measurement of HNE (FIG. 5A), protein-HNE adducts (FIG. 5B), NF-kB (FIG. 5C), and TNF-a and IL-6 (FIG. 5D) as described in the methods. Cells were growth arrested as described above or transfected with control or AR siRNA oligonucleotides, incubated with GS-HNE-ester, or GS-DHN-ester (1 mM), and harvested for determination of NF-kB (FIG. 5E), membrane-bound total PKC (FIG. 5F).
To determine if GS-DHN serves as a cellular sensor of ROS-induced insults, its effects on phosphorylation events upstream of IKK/NF-κB activation in RAW264.7 macrophages was examined.

[2] = system: HT29 cells; test: HT29 cell proliferation, MTT assay; type: cell-based; settings: inhibitor alone
Experimental: HT29 cells were grown to confluence in McCoy's medium and harvested and plated 2,500 per well in a 96-well plate. Subconfluent cells were growth arrested in 0.1% FBS with or without AR inhibitor sorbinil or zopolrestat (20 μM). After 24 hours, EGF (5 ng/ml) or BFGF (10 ng/ml) was added to the medium and the cells were incubated for another 24 hours. Cells incubated with the AR inhibitors alone served as control. Cell viability was determined by an MTT assay.

[3] = system: HT29 cells; test: PGE2 assay in HT29 cells; type: cell-based; settings: inhibitor alone
Experimental: (§1) Caco-2 cells were plated in 6 well plates at a density of 2×10^5 cells/well. After 24 hours, the medium was replaced with fresh medium containing 0.1% serum with or without, sorbinil (20 μM) followed by treatment with either 10 ng/ml BFGF or PDGF, for another 24 h. HT29 cells were plated in 6 well plate at a density of 2×10^5 cells/well. After 24 hours, medium was replaced with serum-free medium with or without, sorbinil or zopolrestat (20 μM) followed by treatment with either EGF (5 ng/ml) or BFGF (10 ng/ml) for another 24 h. The medium from each cell lines was collected from each well and analyzed for PGE2 by using an Enzyme Immuno Assay kit according to the manufacturer's instructions (Cayman Chemical Co., Inc.).
Briefly, 50 μl of diluted standard/sample were pipetted into a pre-coated goat polyclonal anti-mouse IgG 96-well plate. Aliquots (50 μl) of a PGE2 monoclonal antibody and PGE2 acetylcholine esterase (AchE) conjugate, (PGE2 tracer) were added to each well and allowed to incubate at 4° C. for 24 h. After incubation, the wells were washed five times with wash buffer containing 0.05% Tween-20, followed by the addition of 200 μl of Ellman's reagent containing acetylthiocholine and 5,5′-dithio-bis-(2-nitrobenzoic acid). Samples were read after 60 min at 412 nm with an ELISA reader. […]

[4] = system: A549 xenografts; test: A549 xenografts in nude mice; type: in vivo, mouse
Experimental: The levels of ROS in sections of A549 xenografts was determined using dihydroethidium (Het; Molecular Probes, Eugene, Oreg.). The Het dye gives red fluorescence when oxidized to EtBr in the presence of ROS such as O2. Serial sections ([…]) of para-formaldehyde fixed xenografts were deparafinized and rehydrated and incubated with Het dye (5 μM in PBS) for 30 min at 37° C. followed by acquisition of images using a fluorescence microscope 200× magnification.
Nine mice (20 weeks old) were divided into three groups of three animals and were treated with PBS, scrambled AR siRNA, and AR-siRNA, respectively. All nine animals were injected with 2×10^6 A549 human lung carcinoma cell suspensions in 100 μl PBS s.c. Animals were examined daily for signs of tumor growth. Treatment was given two times (day 1 and day 14) when the tumor surface area approximately 45 mm^2 (day 25). Treatment consisted of 200 μg AR-siRNA in 100 μl PBS. Control groups were treated with 200 μg/100 μl scrambled siRNA or diluent (PBS) alone. For the determination of effect of AR inhibitor, animals were fed with zopolrestat (40 mg/kg body weight) in the diet. Tumors were measured in two dimensions using calipers.
Serial sections ([…]) of para-formaldehyde fixed xenografts were deparafenized and rehydrated and incubated with peptide specific AR antibodies and developed using DakoCytomation LSAB+System-HRP kit. The intensity of staining was observed under light microscope with 200× magnification.
The results obtained from in vitro studies were confirmed by in vivo nude mice model bearing human lung carcinoma A549 cells. A549 (2×10^6) cells were implanted s.c. and allowed to grow in nu/nu nude mice to ˜45 mm^2 over a period of 25 days. Animals were grouped into control and experimental groups. Control group were fed with regular diet and experimental group was fed with AR inhibitor, Zopolrestat (after 10 days dose increased from 20 mg to 40 mg/kg/body weight) for until end of the experiment. Tumor growth was measured every two days using calipers. The photographs of animals were taken at days 1, 14, and 37 (FIGS. 20A-20B).

[5] = target: aldose reductase (Homo sapiens, UniProt P15121); settings: cited from earlier work
[6] = system: SW480 xenografts; set-up: tumor progression: dose or concentration left out as unconfirmed
Experimental: Nine 20-weeks-old athymic nu/nu nude mice were divided into three groups of 3 animals (Group 1: treated with PBS; Group 2: treated with scrambled siRNA and Group 3: treated with aldose-reductase siRNA). An aliquot of 2×10^6 SW480 human colon adenocarcinoma cell suspensions in 100 μl PBS was injected subcutaneously into one flank of each nu/nu nude mouse. Animals were examined daily for signs of tumor growth. Treatment was administered when the tumor surface area exceeded 45 mm^2, i.e., day 25. Treatment consisted of 200 mg aldose-reductase siRNA in 100 ml PBS administered intraperitoneally. Control groups were treated with 200 mg/100 ml scrambled siRNA, or diluent (PBS) alone. Mice were treated on days 1 and 14. Tumors were measured in two dimensions using calipers over 40 days.

[7] = system: Caco-2 cells; test: PGE2 assay in Caco-2 cells; type: cell-based, human; settings: preincubation with inhibitor 30 min, BFGF or PDGF 24 h
Experimental: as §1
Briefly, 50 μl of diluted standard/sample were pipetted into a pre-coated goat polyclonal anti-mouse IgG 96-well plate. Aliquots (50 μl) of a PGE2 monoclonal antibody and PGE2 acetylcholine esterase (AchE) conjugate, (PGE2 tracer) were added to each well and allowed to incubate at 4° C. for 24 h. After incubation, the wells were washed five times with wash buffer containing 0.05% Tween-20, followed by the addition of 200 μl of Ellman's reagent containing acetylthiocholine and 5,5′-dithio-bis-(2-nitrobenzoic acid). Samples were read after 60 min at 412 nm with an ELISA reader. In this procedure the intensity of yellow color, is proportional to the amount of PGE2 tracer bound to the well and is inversely proportional to the amount of free PGE2 present in the well during incubation.

[8] = system: rat VSMC cells; test: High glucose-induced TNF-a production in VSMC; type: cell-based; settings: for high glucose-induced TNF-a secretion: preincubated 1 h, then 19.5 mM glucose, apocyanin 25 mM, calphostin C 0.2 mM, N-acetyl cysteine 10 mM, sorbinil or tolrestat 10 mM each, or AR antisense ablated
Experimental: Growth-arrested VSMC in 5.5 mM glucose (NG) were preincubated for 1 h without or with apocyanin (25 mM), D609 (100 mM), calphostin C (0.2 mM), N-acetyl cysteine (10 mM) and NF-kB inhibitor (18 mM) (FIG. 4A) and without or with sorbinil or tolrestat (10 mM each) (FIG. 4B) followed by the addition of glucose (19.5 mM) and incubation for the indicated times. AR antisense ablated VSMC were incubated with HG for the indicated times (FIG. 4C).
Growth-arrested VSMC in 5.5 mM glucose (NG) were preincubated for 1 h without or with apocyanin (25 mM), D609 (100 mM), calphostin C (0.2 mM), N-acetyl cysteine (10 mM) and NF-kB inhibitor (18 mM) respectively, followed by the addition of 19.5 mM glucose, after which the cells were incubated for 12 and 24 hrs.

[9] = system: A549 cells; test: A549 cell proliferation, MTT assay; type: cell-based; settings: Homo sapiens, 24 hrs
Experimental: A549 cells were grown to confluence in Ham's F12K medium containing 10% FBS and harvested, and plated at 5000 cells per well in a 96-well plate. After 24 hrs A549 cells were treated with or without AR inhibitor sorbinil or tolrestat with various concentrations for another 24 hrs. Cells incubated without AR inhibitors served as control. Cell viability was determined by and MTT assay.

[10] = system: A549 cells; test: Western blot of Cox-2 and iNOS in A549 cells; type: cell-based, human; settings: concentration dependent
Experimental: (§2) To examine expression of any of Cox-1, Cox-2, phospho-PKC-2, GAPDH, E2F1, Cyclin D1, Cyclin E, and iNOS proteins, Western blot analyses were carried by known methods (15). Equal amounts of protein from cell extracts were subjected to 12% SDS-PAGE followed by transfer of proteins to nitrocellulose filters, probing with the indicated antibodies, and the antigen-antibody complex was detected by enhanced chemiluminescence (Pierce, Piscataway, N.J., USA).

[11] = system: A549 cells; test: Western blot of cell cycle regulatory proteins in A549 cells; type: cell-based, human; settings: various concentrations
Experimental: as §2

[12] = system: Caco-2 cells; test: Reactive oxygen species in Caco-2 cells (DCFH-DA); type: cell-based, human; settings: 20 μM, FGF or PDGF 10 ng/ml 60 min
Experimental: Caco-2 cells were plated in a 24-well plate at a density of 1.5×10^4 cells/well in DMEM and then serum-starved at 60-70% confluence in the absence and presence of 20 μM sorbinil or tolrestat for overnight in phenol red-free DMEM supplemented with 0.1% FBS. Cells were then pre-incubated for 30 min with the ROS-sensitive fluorophore 2′,7′-dichlorofluorescein diacetate (DCFH-DA), which is taken up and oxidized to the fluorescent dichlorofluorescein by intracellular ROS. After incubation with DCFH-DA, the cells were exposed to FGF or PDGF 10 ng/ml for 60 min and fluorescence was measured with a CytoFluorII fluorescence plate reader (PerSeptive Biosystems, Inc., Framingham, Mass.) at excitation of 485 nm and emission of 528 nm.

[13] = compared to control and scrambled siRNA

For “glutathionyl-1,4-dihydroxynonene [GS-DHN]”, the “increase of protein kinase C (PKC) activity after GS-DHN challenge” value ([1]; within 60 min) was roughly 2.5 fold.

In the case of `O=C(O)Cc1nn(Cc2nc3cc(C(F)(F)F)ccc3s2)c(=O)c2ccccc12` [zopolrestat, 3,4-dihydro-4-oxo-3-[[5-(trifluoromethyl)-2-benzothiazolyl]methyl]-1-phthalazineacetic acid], the HT29 cells proliferation [2] is reported as “did not cause any effect”, the “constitutive levels of PGE2” value [3] is reported as “did not inhibit” and the “normal weight gain of animals” value ([4]; zopolrestat in the diet) is reported as “None of the treatments interfered”. For the same compound, the tumor progression ([4]; zopolrestat in the diet, 20 mg to 40 mg/kg/body weight) was “completely arrested”.

In the case of `N[C@@H](CCC(=O)N[C@@H](CSC(CC(=O)O)C(=O)O)C(=O)NCC(=O)O)C(=O)O` (stereo partly drawn) [DCEG, S-(1,2-dicarboxyethyl) glutathione, γ-glutamyl-S-(1,2-dicarboxyethyl)cysteinylglycine], the “inhibition of AR-catalyzed reaction of glutathionyl-propanal” value [5] is given as “competitive inhibitor” and the “inhibition of aldehyde reduction by aldose reductase” value [5] is given as “competitive inhibitor”.

In the case of “AR-siRNA: AR-siRNA (5′-AATCGGTGTCTCCAACTTCAA-3′; SEQ ID NO: 1) synthesized by Dharmacon Research (chemistry not given here)”, the “ability of GS-DHN to activate NF-κB” value [1] is reported as “had no effect”, the “effects of HNE/GS-HNE on IKK-a/b phosphorylation and NF-kB translocation” value [1] is reported as “significantly blunted” and the “AR protein expression in xenograft sections” value [4, 13] is reported as “significantly prevention”. For the same compound, the “ROS production in xenograft sections (HEt red fluorescence)” value [4, 13] was “significantly reduced”, the “progression of tumor growth” value ([4]; i.p. 200 μg AR-siRNA in 100 μl PBS on days 1 and 14) was “inhibited completely” and the tumor progression ([6]; intraperitoneally, days 1 and 14) was “completely arrested”. The “normal weight gain of animals” value ([6]; mouse, in vivo) was “without interfering”.

For `CC(=O)N[C@@H](CS)C(=O)O` [N-acetylcysteine], the “growth factor-induced production of PGE2” value [7] was “attenuated”.

For calphostin C, the “high glucose-induced TNF-a secretion” value [8] was “markedly decreased” and the “growth factor-induced production of PGE2” value [7] was “attenuated”.

With `COc1ccc2c(C(=S)N(C)CC(=O)O)cccc2c1C(F)(F)F` [tolrestat] the “basal levels of TNF-a” value ([8]; media containing 5.5 mM glucose, mannitol, or 3-OMG) was “did not affect”, the “high glucose-induced TNF-a secretion” value [8] was “prevents” and the inhibition at 100 µM [9] was greater than 75%. The “Cox-2 and iNOS expression” value [10] was “inhibit”, the “E2F-1, Cyclin E and Cyclin D1 expression” value [11] was “significant inhibition” and the “growth factor-induced increase in ROS” value [12] was “inhibited”.
